# Assay results: patent US20080045504A1, “Benzonitrile Derivatives to Treat Musculoskeletal Frailty” (PFIZER PRODUCTS INC., priority 2004, published 2008)
# pIC50: −log10 of the molar value. Marks after values point to notes of the source that are not given here.
# What was measured:
# [1] = target: T1, recombinant human androgen receptor (hAR) (Homo sapiens, UniProt P10275); experiment: Human androgen receptor binding analysis (3H-DHT competitive binding)
# T1 construct: made in house; host or cells: baculovirus/Sf9 insect cells (crude extract)
# T1 sequence (P10275 1-920): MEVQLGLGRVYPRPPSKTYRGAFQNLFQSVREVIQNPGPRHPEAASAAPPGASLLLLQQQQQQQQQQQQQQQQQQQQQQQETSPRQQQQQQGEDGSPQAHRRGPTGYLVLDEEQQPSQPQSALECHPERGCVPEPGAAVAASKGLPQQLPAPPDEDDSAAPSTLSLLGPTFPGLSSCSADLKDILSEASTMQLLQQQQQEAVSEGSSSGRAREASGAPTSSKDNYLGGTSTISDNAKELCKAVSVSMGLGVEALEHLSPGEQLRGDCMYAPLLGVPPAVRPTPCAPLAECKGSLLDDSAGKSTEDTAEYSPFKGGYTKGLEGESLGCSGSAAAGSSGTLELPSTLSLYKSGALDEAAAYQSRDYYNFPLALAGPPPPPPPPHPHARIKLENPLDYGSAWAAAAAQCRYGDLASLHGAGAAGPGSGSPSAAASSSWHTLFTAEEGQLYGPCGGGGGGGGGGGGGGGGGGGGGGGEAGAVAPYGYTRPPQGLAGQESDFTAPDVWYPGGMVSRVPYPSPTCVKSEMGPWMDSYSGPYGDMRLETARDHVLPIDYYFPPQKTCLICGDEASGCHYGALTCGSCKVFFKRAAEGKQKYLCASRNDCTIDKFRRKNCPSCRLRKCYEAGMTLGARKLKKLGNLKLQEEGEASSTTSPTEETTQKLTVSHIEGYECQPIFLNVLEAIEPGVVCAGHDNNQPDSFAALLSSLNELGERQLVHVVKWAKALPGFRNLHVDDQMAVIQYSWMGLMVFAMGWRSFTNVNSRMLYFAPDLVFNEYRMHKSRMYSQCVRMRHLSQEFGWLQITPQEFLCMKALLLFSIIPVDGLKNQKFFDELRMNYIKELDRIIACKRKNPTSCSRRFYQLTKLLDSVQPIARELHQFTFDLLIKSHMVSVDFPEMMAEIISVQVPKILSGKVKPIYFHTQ
# Procedure: The following is a brief description of the assay that determines the affinity of a compound for the recombinant human androgen receptor (hAR). Competitive binding analysis is performed on baculovirus/Sf9 generated hAR extracts in the presence or absence of differing concentrations of drug and a fixed concentration of ^3H-dihydrotestosterone (^3H-DHT) as tracer. This binding assay method is a modification of a protocol previously described (Chang, et. al. J. Steroid Biochem. 20(1):11-17 1984). Briefly, progressively decreasing concentrations of compounds are incubated in the presence of hAR extract (Chang et al. P.N.A.S. Vol. 89, pp. 5546-5950, 1992), hydroxylapatite and 1 nM ^3H-DHT for one hour at 4° C. Subsequently, the binding reactions are washed three times to completely remove excess unbound ^3H-DHT. hAR bound ^3H-DHT levels are determined in the presence of compounds (=competitive binding) and compared to levels bound when no competitor is present (=maximum binding). Compound binding affinity to the hAR is expressed as the concentration of compound at which one half of the maximum binding is inhibited (the IC50).
# [2] = system: aged ovariectomized (OVX) female rat; experiment: Effect on body weight, body composition and bone density in the aged ovariectomized female rat; format: in vivo, Sprague-Dawley rat; settings: OVX rats
# Procedure: Effect of Selective Androgen Receptor Modulator on Body Weight. Body Composition and Bone Density in the Aged Intact and Ovariectomized Female Rat The purpose of this study is to test the effects of test compound in aged intact or ovariectomized (OVX) female rat model.
# Sprague-Dawley female rats were sham-operated or OVX at 18 months of age, while a group of rats was necropsied at day 0 to serve as baseline controls. One day post-surgery, the rats were treated with either vehicle or test compound. The vehicle or test compound was administered twice a week (Tuesday and Friday) by subcutaneous injection (s.c.), with the test compound being administered at an average dose of 10 milligrams per kilogram of body weight per day (10 mg/kg/day).
# All rats were given s.c. injection of 10 mg/kg of calcein (Sigma, St. Louis, Mo.) for fluorescent bone label 2 and 12 days before necropsy. On the day of necropsy, all rats under ketamine/xylazine anesthesia were weighed and underwent dual-energy X-ray absorptiometry (DXA, QDR-4500/W, Hologic Inc., Waltham, Mass.) equipped with Rat Whole Body Scan software for lean and fat body mass determination. The rats were necropsied, then autopsied and blood was obtained by cardiac puncture. The distal femoral metaphysis and femoral shafts from each rat were analyzed by peripheral quantitative computerized tomography (pQCT), and volumetric total, trabecular and cortical bone mineral content and density were determined.
# Peripheral Quantitative Computerized Tomography (pQCT) Analysis: Excised femurs were scanned by a pQCT X-ray machine (Stratec XCT Research M, Norland Medical Systems, Fort Atkinson, Wis.) with software version 5.40. A 1 millimeter (mm) thick cross section of the femur metaphysis was taken at 5.0 mm ([…], a primary cancellous bone site) and 13 mm (femoral shafts, a cortical bone site) proximal from the distal end with a voxel size of 0.10 mm. Cortical bone was defined and analyzed using contour mode 2 and cortical mode 4. An outer threshold setting of 340 mg/cm^3 was used to distinguish the cortical shell from soft tissue and an inner threshold of 529 mg/cm^3 to distinguish cortical bone along the endocortical surface. Trabecular bone was determined using peel mode 4 with a threshold of 655 mg/cm^3 to distinguish (sub)cortical from cancellous bone. An additional concentric peel of 1% of the defined cancellous bone was used to ensure that (sub)cortical bone was eliminated from the analysis. Volumetric content, density, and area were determined for both trabecular and cortical bone (Jamsa T. et al., Bone 23:155-161, 1998; Ke, H. Z. et al., Journal of Bone and Mineral Research, 16:765-773, 2001). Using the above setting, it was determined that the ex vivo precision of volumetric content, density and area of total bone, trabecular, and cortical regions ranged from 0.99% to 3.49% with repositioning.
# The preceding protocol was carried out using the compound of Example 1 as the test compound. The vehicle employed in experimental groups II-IV was 100% sesame oil. The rats in groups II-IV were dosed s.c. twice a week (on Tuesday and Friday) with 0.3 ml and 0.4 ml. This dosing provided an average daily dose of 10 mg/kg/day of the compound of Example 1 for experimental group IV.
# The values provided in Table 3 are the mean values±the standard error measurement. In Table 3 and the experimental protocol the following abbreviations or symbols had the following definitions. DFM: distal femoral metaphysis; FS: femoral shafts; g: grams; mg/cm^3: milligrams per cubic centimeter; mg/mm: milligrams per millimeter; a: p<0.05 vs. Baseline; b: p<0.05 vs. Sham; c: p<0.05 vs. OVX; mg/kg/day: milligrams per kilogram of body weight per day; and ml: milliliter.
# [3] = 10 mg/kg/day s.c. twice a week, DXA, mean ± SEM
# [4] = 10 mg/kg/day s.c., distal femoral metaphysis, pQCT, mean ± SEM
# [5] = 10 mg/kg/day s.c., femoral shafts, pQCT, mean ± SEM
# [6] = 10 mg/kg/day, compared to OVX rats administered vehicle
compound,measurement,setting,value
"CC[C@H]1CCCCN1c1ccc(C#N)c(C(F)(F)F)c1 [Example 1, 4-(2-(S)-Ethyl-piperidin-1-yl)-2-trifluoromethyl-benzonitrile]",pIC50,[1],8.28
same,Body Weight,"[2]; 10 mg/kg/day s.c. twice a week in sesame oil, mean ± SEM","459 ± 10.7^b,c g"
same,Fat Body Mass,[2]; [3],121.7 ± 7.9^c g
same,lean body mass,[2]; [3],319.0 ± 7.7^c g
same,Total Density of DFM,[2]; [4],602.2 ± 12.3^b mg/cm^3
same,Trabecular Density of DFM,[2]; [4],310.4 ± 0.16 mg/mL
same,Cortical Content of FS,[2]; [5],11.8 ± 0.15^c mg/mm
same,Total Content of FS,[2]; [5],11.9 ± 0.16^c mg/mm
same,effect on body weight,[2]; [6],negligible effect
same,effect on fat body mass,[2]; [6],significantly decreased
same,effect on lean body mass,[2]; [6],significantly increased
